Measured values published in patent US10383948B2, “Anti-cMet antibody drug conjugates and methods for their use” (AbbVie Inc., priority 2016, dated 2019).

Assays:
[1] = test system: HUVEC (vascular endothelial); assay: Cytotoxicity assay (CellTiter-Glo, 6 days); format: cell-based; settings: HUVEC (vascular endothelial) non-tumor; relative to untreated control at ≤1 μg/mL in a six day proliferation
Procedure: (§1) Tumor cells were plated at 2000-5000 cells/well in 180 μL growth medium containing 10% FBS in 96-well plates, and cultured at 37° C. in a humidified incubator with 5% C02. The following day, titrations of antibodies or ADCs in 20 μL were added and cells were incubated for 6 days. Cell viability was determined using a CellTiter-Glo Luminescent Cell Viability Assay (Promega) according to the manufacturer's instructions. A non-binding, irrelevant negative control ADC conjugated to MMAE was also included in all assays to confirm that cell killing was antigen dependent.

[2] = test system: NHDF (dermal fibroblasts); assay: Cytotoxicity assay (CellTiter-Glo, 6 days); format: cell-based; settings: NHDF (dermal fibroblasts) non-tumor; relative to untreated control at ≤1 μg/mL in a six day proliferation
Procedure: as §1

[3] = test system: PrEC (prostate epithelial); assay: Cytotoxicity assay (CellTiter-Glo, 6 days); format: cell-based; settings: PrEC (prostate epithelial) non-tumor; relative to untreated control at ≤1 μg/mL in a six day proliferation
Procedure: as §1

[4] = test system: HMEC (mammary epithelial); assay: Cytotoxicity assay (CellTiter-Glo, 6 days); format: cell-based; settings: HMEC (mammary epithelial) non-tumor; relative to untreated control at ≤1 μg/mL in a six day proliferation
Procedure: as §1

[5] = test system: KP4; assay: Cytotoxicity assay (CellTiter-Glo, 6 days); format: cell-based, human; settings: KP4 pancreatic cancer; relative to untreated control at ≤1 μg/mL in a six day proliferation
Procedure: as §1
as §1, with “of” for “of antibodies or”, “antigen-dependent.” for “antigen dependent.”

[6] = test system: SW48; assay: Cytotoxicity assay (CellTiter-Glo, 6 days); format: cell-based, human; settings: SW48 colorectal cancer; relative to untreated control at ≤1 μg/mL in a six day proliferation
Procedure: as §1
as §1, with “of” for “of antibodies or”, “antigen-dependent.” for “antigen dependent.”

[7] = test system: NCI-H441; assay: Cytotoxicity assay (CellTiter-Glo, 6 days); format: cell-based, human; settings: NCI-H441 lung cancer; relative to untreated control at ≤1 μg/mL in a six day proliferation
Procedure: as §1
as §1, with “of” for “of antibodies or”, “antigen-dependent.” for “antigen dependent.”

[8] = test system: A549; assay: Cytotoxicity assay (CellTiter-Glo, 6 days); format: cell-based, human; settings: A549 lung cancer; relative to untreated control at ≤1 μg/mL in a six day proliferation
Procedure: as §1
as §1, with “of” for “of antibodies or”, “antigen-dependent.” for “antigen dependent.”

[9] = test system: Hs746T; assay: Cytotoxicity assay (CellTiter-Glo, 6 days); format: cell-based, human
Procedure: as §1
as §1, with “of” for “of antibodies or”, “antigen-dependent.” for “antigen dependent.”

[10] = test system: U87MG; assay: Cytotoxicity assay (CellTiter-Glo, 6 days); format: cell-based, human; settings: U-87MG glioblastoma; relative to untreated control at ≤1 μg/mL in a six day proliferation
Procedure: as §1
as §1, with “of” for “of antibodies or”, “antigen-dependent.” for “antigen dependent.”

[11] = test system: NCI-H1650; assay: Cytotoxicity assay (CellTiter-Glo, 6 days); format: cell-based, human; settings: NCI-H1650 lung cancer; relative to untreated control at ≤1 μg/mL in a six day proliferation
Procedure: as §1
as §1, with “of” for “of antibodies or”, “antigen-dependent.” for “antigen dependent.”

[12] = test system: NCI-H1573; assay: Cytotoxicity assay (CellTiter-Glo, 6 days); format: cell-based, human; settings: NCI-H1573 lung cancer
Procedure: as §1
as §1, with “of” for “of antibodies or”, “antigen-dependent.” for “antigen dependent.”

[13] = test system: EBC-1; assay: Cytotoxicity assay (CellTiter-Glo, 6 days); format: cell-based, human; settings: EBC-1 lung cancer; relative to untreated control at ≤1 μg/mL in a six day proliferation
Procedure: as §1
as §1, with “of” for “of antibodies or”, “antigen-dependent.” for “antigen dependent.”

[14] = test system: Hs746T ABT-700R xenografts; assay: ABT-700-refractory xenograft efficacy; format: in vivo, mice
[15] = test system: LG1049 patient-derived xenograft; assay: NSCLC patient-derived xenograft, Kaplan-Meier; format: in vivo, NSG mice; settings: ABBV-399 every four days x6, ABT-700 every seven days x6, FIGS. 10A-10B
Description: Tumor fragments of 3 to 5 mm^3 at passage 3 (P3) were implanted subcutaneously in the right rear flank of NSG mice (The Jackson Laboratory) with a trochar. For all groups, tumor volumes were plotted only for the duration that allowed the full set of animal to remain on study. If animals had to be taken off study, the remaining animals were monitored for tumor growth until they reached defined end-points. Efficacy is depicted on a Kaplan-Meier plot for (A) LG0703 and (B) LG1049 models as fractions reaching the indicated tumors volumes following therapy.

[16] = test system: HT-29; assay: Cytotoxicity assay (CellTiter-Glo, 6 days); format: cell-based, human; settings: HT-29 colorectal cancer
Procedure: as §1

[17] = test system: SNU-620; assay: Cytotoxicity assay (CellTiter-Glo, 6 days); format: cell-based, human; settings: SNU-620 gastric cancer
Procedure: as §1

[18] = test system: MCF-7; assay: Cytotoxicity assay (CellTiter-Glo, 6 days); format: cell-based, human; settings: MCF-7 breast cancer; relative to untreated control at ≤1 μg/mL in a six day proliferation
Procedure: as §1

[19] = test system: IM-95; assay: Cytotoxicity assay (CellTiter-Glo, 6 days); format: cell-based, human; settings: IM-95 gastric cancer
Procedure: as §1

[20] = test system: SNU-5; assay: Cytotoxicity assay (CellTiter-Glo, 6 days); format: cell-based, human
Procedure: as §1

[21] = test system: MDA-MB-231; assay: Cytotoxicity assay (CellTiter-Glo, 6 days); format: cell-based, human; settings: MDA-MB-231 breast cancer; relative to untreated control at ≤1 μg/mL in a six day proliferation
Procedure: as §1

[22] = relative to untreated control at ≤1 μg/mL in a six day proliferation
[23] = read-out: ABBV-399 IC50, cell proliferation assay, Table 7B

ABBV-399: ADC comprised of the cMet targeting antibody ABT-700 conjugated to MMAE through a valine citrulline (vc) linker
Maximal Killing [1]: 6% | Maximal Killing [2]: 0% | Maximal Killing [3]: 0% | Maximal Killing [4]: 0% | Maximal Killing [5]: 53% | Maximal Killing [6]: 0% | Maximal Killing [7]: 56% | Maximal Killing [8]: 22% | Maximal Killing ([9]; Hs746T gastric cancer, relative to untreated control at ≤1 μg/mL in a six day proliferation): 87% | inhibition of proliferation ([9]; MET-amplified Hs746T gastric cancer cells, FIG. 4): inhibited proliferation | Maximal Killing [10]: 30% | Maximal Killing [11]: 13% | Maximal Killing [12, 22]: 18% | IC50 [12, 23]: 18 nM | Maximal Killing [13]: 96% | tumor response ([14]; Hs746T ABT-700R of approximately 300 mm^3): complete tumor regression | tumor response ([14]; refractory tumors at mean cohort size approximately 1,000 mm^3, followed by eventual outgrowth): tumor regression | in vivo activity, comparison [15]: more active than ABT-700 alone | Maximal Killing [16, 22]: 70% | IC50 [16, 23]: 9 nM | Maximal Killing [17, 22]: 80% | IC50 [17, 23]: 0.17 nM | Maximal Killing [18]: 0% | Maximal Killing [19, 22]: 53% | IC50 [19, 23]: 1.7 nM | inhibition of proliferation ([20]; MET-amplified SNU-5 gastric cancer cells, FIG. 4): inhibited proliferation | Maximal Killing ([20]; SNU-5 gastric cancer, relative to untreated control at ≤1 μg/mL in a six day proliferation): 85% | IC50 ([20]; read-out: ABBV-399 IC50, SNU-5 gastric cancer, cell proliferation assay, Table 7B): 0.28 nM | Maximal Killing [21]: 0%
